According to patent US8044213B2, “Thiazolyl-benzimidazoles” (Hoffmann-La Roche Inc., priority 2008, dated 2011):

molecular target: T1, PLK1 (Homo sapiens, UniProt P53350); assay: Biochemical Characterization Assay B (peptide substrate, LABCHIP EZ Reader II); conditions: PLK1, peptide RRRAGALMDASFEEQ-CONH2, % conversion on LABCHIP EZ Reader II
T1 construct: Full-length, active GST-Plk1 was purified from Sf9 insect cells; GST (N); made in house; host or cells: Sf9 insect cells
Protocol: Compounds were serially diluted to 6400, 2133, 711, 237, 79, 26, 8.78, 2.93, 0.98 and 0.33 μM in 100% DMSO. Diluted compound was further diluted 20 fold with Kinase Assay Buffer (KAB). Peptide RRRAGALMDASFEEQ-CONH2 (MW 2090) was diluted to 1.2 μM with KAB and ATP was added to 400 μM. PLK1 stock, prepared as described above, was diluted to 3 μg protein/mL with KAB right before it was added to MATRIX 384-Well Polypropylene Black Plates to start the reaction. 20 μL of KAB diluted compounds (or 5% DMSO in KAB for Total and Blank), 20 μL of KAB diluted peptide with ATP and 40 μL of KAB diluted PLK1 solution (KAB without PLK 1 for Blanks) were transferred to each well of the polypropylene plates. The reaction mixtures were incubated at room temperature for 40 minutes. Reactions were stopped by addition of 10 uL Reaction Stopping Buffer (RSB) to each well. Plates were then read on LABCHIP EZ Reader II from Caliper Life Science.
The IC50 values for each compound were generated using an Excel template. The % conversion readings of Total and Blank were used as 0% and 100% inhibition. The percent inhibition values of reactions in the presence of compounds were calculated, and plotted against compound concentrations. All data were fitted into a Dose Response One Site model (4 parameter logistic model) as the following: (A+4B−A)/(1+((x/C)^13)))), with A and B as the bottom and top of the curve (highest and lowest inhibition), respectively, and C as IC50 and D as Hill Coefficient of the compound.

T1 sequence (P53350 whole entry): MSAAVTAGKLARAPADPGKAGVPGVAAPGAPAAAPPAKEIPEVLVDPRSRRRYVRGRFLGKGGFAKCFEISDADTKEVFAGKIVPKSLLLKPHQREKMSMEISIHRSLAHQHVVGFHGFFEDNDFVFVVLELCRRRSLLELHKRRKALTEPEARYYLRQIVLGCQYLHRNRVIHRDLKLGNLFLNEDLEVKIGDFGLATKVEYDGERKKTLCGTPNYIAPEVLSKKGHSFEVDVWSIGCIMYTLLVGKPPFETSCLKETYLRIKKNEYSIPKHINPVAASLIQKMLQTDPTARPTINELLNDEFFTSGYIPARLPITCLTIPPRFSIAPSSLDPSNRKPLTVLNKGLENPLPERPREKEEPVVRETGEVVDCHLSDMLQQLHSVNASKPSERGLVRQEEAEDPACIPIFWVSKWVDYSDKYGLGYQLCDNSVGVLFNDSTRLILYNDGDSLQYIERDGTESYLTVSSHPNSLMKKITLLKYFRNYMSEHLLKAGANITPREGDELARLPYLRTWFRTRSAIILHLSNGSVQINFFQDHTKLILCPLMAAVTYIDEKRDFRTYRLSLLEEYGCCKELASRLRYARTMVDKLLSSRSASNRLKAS

Compound	IC50
CN(C)CCN(C)Cc1ccc2ncn(-c3nc(-c4cccc(Cl)c4)c(C(N)=O)s3)c2c1 [Example 6, 4-(3-Chloro-phenyl)-2-(6-{[(2-dimethylamino-ethyl)-methyl-amino]-methyl}-benzoimidazol-1-yl)-thiazole-5-carboxylic acid amide]	500 nM
CC(C)(C)OC(=O)NC1CCN(Cc2ccc3ncn(-c4nc(-c5cccc(Cl)c5)c(C(N)=O)s4)c3c2)CC1 [Example 12]	666 nM
CN1CCC(C(=O)NC2CCN(Cc3ccc4ncn(-c5nc(-c6cccc(Cl)c6)c(C(N)=O)s5)c4c3)CC2)CC1 [Example 14, 1-Methyl-piperidine-4-carboxylic acid (1-{3-[5-carbamoyl-4-(3-chloro-phenyl)-thiazol-2-yl]3H-benzoimidazol-5-ylmethyl}-piperidin-4-yl)-amide]	1480 nM
CC(C)(C)OC(=O)NC(C)(C)C(=O)NC1CCN(Cc2ccc3ncn(-c4nc(-c5cccc(Cl)c5)c(C(N)=O)s4)c3c2)CC1 [Example 15, [1-(1-{3-[5-Carbamoyl-4-(3-chloro-phenyl)-thiazol-2-yl]-3H-benzoimidazol-5-ylmethyl}-piperidin-4-ylcarbamoyl)-1-methyl-ethyl]-carbamic acid tert-butyl ester]	5270 nM
CC(C)(N)C(=O)NC1CCN(Cc2ccc3ncn(-c4nc(-c5cccc(Cl)c5)c(C(N)=O)s4)c3c2)CC1 [Example 16, 2-{6-[4-(2-Amino-2-methyl-propionylamino)-piperidin-1-ylmethyl]-benzoimidazol-1-yl}-4-(3-chloro-phenyl)-thiazole-5-carboxylic acid amide]	1290 nM
NC(=O)c1sc(-n2cnc3ccc(OCCN4CCCCC4)cc32)nc1-c1cccc(Cl)c1 [Example 27, 4-(3-Chloro-phenyl)-2-[6-(2-piperidin-1-yl-ethoxy)-benzoimidazol-1-yl]-thiazole-5-carboxylic acid amide]	264 nM
CN1CCN(CCOc2ccc3ncn(-c4nc(-c5cccc(Cl)c5)c(C(N)=O)s4)c3c2)CC1 [Example 28, 4-(3-Chloro-phenyl)-2-{6-[2-(4-methyl-piperazin-1-yl)-ethoxy]-benzoimidazol-1-yl}-thiazole-5-carboxylic acid amide]	105 nM
CN(C)CCOc1ccc2ncn(-c3nc(-c4cccc(Cl)c4)c(C(N)=O)s3)c2c1 [Example 29, 4-(3-Chloro-phenyl)-2-[6-(2-dimethylamino-ethoxy)-benzoimidazol-1-yl]-thiazole-5-carboxylic acid amide]	356 nM
NC(=O)c1sc(-n2cnc3ccc(OCCCNCCO)cc32)nc1-c1cccc(Cl)c1 [Example 36, 4-(3-Chloro-phenyl)-2-{6-[3-(2-hydroxy-ethylamino)-propoxy]-benzoimidazol-1-yl}-thiazole-5-carboxylic acid amide]	80 nM
CN1CCN(CCCCOc2ccc3ncn(-c4nc(-c5cccc(Cl)c5)c(C(N)=O)s4)c3c2)CC1 [Example 37, 4-(3-Chloro-phenyl)-2-{6-[4-(4-methyl-piperazin-1-yl)-butoxy]-benzoimidazol-1-yl}-thiazole-5-carboxylic acid amide]	27 nM
NC(=O)c1sc(-n2cnc3ccc(OCCCCN4CCOCC4)cc32)nc1-c1cccc(Cl)c1 [Example 38, 4-(3-Chloro-phenyl)-2-[6-(4-morpholin-4-yl-butoxy)-benzoimidazol-1-yl]-thiazole-5-carboxylic acid amide]	11 nM

Other lines, results leading:

IC50	Compound
37 nM	NC(=O)c1sc(-n2cnc3ccc(CN4CCC(N)CC4)cc32)nc1-c1cccc(Cl)c1 [Example 13, 2-[6-(4-Amino-piperidin-1-ylmethyl)-benzoimidazol-1-yl]-4-(3-chloro-phenyl)-thiazole-5-carboxylic acid amide]
18 nM	CN1CCC(Oc2ccc3ncn(-c4nc(-c5cccc(Cl)c5)c(C(N)=O)s4)c3c2)CC1 [Example 22, 4-(3-Chloro-phenyl)-2-[6-(1-methyl-piperidin-4-yloxy)-benzoimidazol-1-yl]-thiazole-5-carboxylic acid amide]
17 nM	NC(=O)c1sc(-n2cnc3ccc(OCC4CCNCC4)cc32)nc1-c1cccc(Cl)c1 [Example 23, 4-(3-Chloro-phenyl)-2-[6-(piperidin-4-ylmethoxy)-benzoimidazol-1-yl]-thiazole-5-carboxylic acid amide]
14 nM	CN1CCC(COc2ccc3ncn(-c4nc(-c5cccc(Cl)c5)c(C(N)=O)s4)c3c2)CC1 [Example 24, 4-(3-Chloro-phenyl)-2-[6-(1-methyl-piperidin-4-ylmethoxy)-benzoimidazol-1-yl]-thiazole-5-carboxylic acid amide]
80 nM	NC(=O)c1sc(-n2cnc3ccc(OCCCN4CCCCC4)cc32)nc1-c1cccc(Cl)c1 [Example 32, 4-(3-Chloro-phenyl)-2-[6-(3-piperidin-1-yl-propoxy)-benzoimidazol-1-yl]-thiazole-5-carboxylic acid amide]
50 nM	NC(=O)c1sc(-n2cnc3ccc(OCCCN4CCCC4)cc32)nc1-c1cccc(Cl)c1 [Example 34, 4-(3-Chloro-phenyl)-2-[6-(3-pyrrolidin-1-yl-propoxy)-benzoimidazol-1-yl]-thiazole-5-carboxylic acid amide]
68 nM	NC(=O)c1sc(-n2cnc3ccc(OCCCN(CCO)CCO)cc32)nc1-c1cccc(Cl)c1 [Example 35, 2-(6-{3-[Bis-(2-hydroxy-ethyl)-amino]-propoxy}-benzoimidazol-1-yl)-4-(3-chloro-phenyl)-thiazole-5-carboxylic acid amide]
50 nM	CN1CCN(CC(O)COc2ccc3ncn(-c4nc(-c5cccc(Cl)c5)c(C(N)=O)s4)c3c2)CC1 (stereo not drawn) [Example 39, 4-(3-Chloro-phenyl)-2-{6-[2-hydroxy-3-(4-methyl-piperazin-1-yl)-propoxy]-benzoimidazol-1-yl}-thiazole-5-carboxylic acid amide]
13 nM	NC(=O)c1sc(-n2cnc3ccc(OCC(O)CN4CCOCC4)cc32)nc1-c1cccc(Cl)c1 (stereo not drawn) [Example 40, 4-(3-Chloro-phenyl)-2-[6-(2-hydroxy-3-morpholin-4-yl-propoxy)-benzoimidazol-1-yl]-thiazole-5-carboxylic acid amide]
16 nM	NC(=O)c1sc(-n2cnc3ccc(CCCCN4CCOCC4)cc32)nc1-c1cccc(Cl)c1 [Example 41, 4-(3-Chloro-phenyl)-2-[6-(4-morpholin-4-yl-butyl)-benzoimidazol-1-yl]-thiazole-5-carboxylic acid amide]
8 nM	COc1cc2ncn(-c3nc(-c4cccc(Cl)c4)c(C(N)=O)s3)c2cc1OCCCN1CCOCC1 [Example 43, 4-(3-Chloro-phenyl)-2-[5-methoxy-6-(3-morpholin-4-yl-propoxy)-benzoimidazol-1-yl]-thiazole-5-carboxylic acid amide]
61 nM	COc1cc2ncn(-c3nc(-c4cccc(Cl)c4)c(C(N)=O)s3)c2cc1OCCN1CCN(C)CC1 [Example 44, 4-(3-Chloro-phenyl)-2-{5-methoxy-6-[2-(4-methyl-piperazin-1-yl)-ethoxy]-benzoimidazol-1-yl}-thiazole-5-carboxylic acid amide]
26 nM	COc1cc2ncn(-c3nc(-c4cccc(Cl)c4)c(C(N)=O)s3)c2cc1OCCN1CCOCC1 [Example 45, 4-(3-Chloro-phenyl)-2-[5-methoxy-6-(2-morpholin-4-yl-ethoxy)-benzoimidazol-1-yl]-thiazole-5-carboxylic acid amide]
